Consider 14 compounds from patent publication EP1382597A2, “Steroid receptor modulator compounds and methods” (LIGAND PHARMACEUTICALS, INC., priority 1994, dated 1996).

Assay [1] deals with T1, human PR-B (Homo sapiens, UniProt P06401).
T1 construct: expressed in transfected cells; host or cells: CV-1 cells (African green monkey kidney fibroblasts), transient transfection
T1 sequence (P06401 1-933): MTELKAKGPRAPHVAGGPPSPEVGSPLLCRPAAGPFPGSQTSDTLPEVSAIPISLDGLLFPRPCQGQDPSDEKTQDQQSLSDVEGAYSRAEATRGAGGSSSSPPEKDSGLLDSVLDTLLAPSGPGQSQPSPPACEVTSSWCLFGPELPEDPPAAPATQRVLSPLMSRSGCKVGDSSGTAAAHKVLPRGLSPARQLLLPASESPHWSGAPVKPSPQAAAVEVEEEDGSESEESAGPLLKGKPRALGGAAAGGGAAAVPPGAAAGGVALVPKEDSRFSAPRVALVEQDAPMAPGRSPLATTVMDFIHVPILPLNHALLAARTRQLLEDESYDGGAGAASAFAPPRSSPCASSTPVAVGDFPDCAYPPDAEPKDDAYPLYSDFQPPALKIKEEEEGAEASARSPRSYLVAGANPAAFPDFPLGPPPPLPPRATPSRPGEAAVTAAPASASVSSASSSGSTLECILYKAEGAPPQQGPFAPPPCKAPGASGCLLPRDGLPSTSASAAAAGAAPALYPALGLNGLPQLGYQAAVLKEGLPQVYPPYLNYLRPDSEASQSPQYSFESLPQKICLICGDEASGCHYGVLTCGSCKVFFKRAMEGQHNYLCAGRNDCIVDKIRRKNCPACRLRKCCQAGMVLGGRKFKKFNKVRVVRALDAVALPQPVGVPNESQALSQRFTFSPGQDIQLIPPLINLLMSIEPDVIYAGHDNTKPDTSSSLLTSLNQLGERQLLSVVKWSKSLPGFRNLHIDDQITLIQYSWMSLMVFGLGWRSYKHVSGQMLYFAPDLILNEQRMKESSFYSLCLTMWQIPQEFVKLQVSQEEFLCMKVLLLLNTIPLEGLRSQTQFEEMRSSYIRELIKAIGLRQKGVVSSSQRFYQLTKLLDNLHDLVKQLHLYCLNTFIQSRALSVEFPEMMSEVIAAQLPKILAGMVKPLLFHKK
The assay can be described thus: Co-transfection assay, PR antagonist activity.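 Note: monkey kidney fibroblasts co-transfected with receptor expression plasmid and hormone-responsive luciferase reporter, antagonism read as reduced luciferase signal.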 The class given is cell-based.

The target of a further assay is T2, ER (Homo sapiens, UniProt P03372).
T2 construct: expressed in transfected cells; host or cells: CV-1 cells, transient transfection, with MTV-ERE5-LUC reporter
The experiment in a line: Co-transfection assay, ER antagonist activity. The conditions noted are these: for ER Antagonist CV-1 Cells Efficacy (%): percent maximal inhibition, estradiol at its EC50. It is filed as cell-based.

Assay [2] addresses T1, human PR-B. The assay can be described thus: Co-transfection assay, PR agonist activity.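 Note: CV-1 cells (African green monkey kidney) co-transfected with receptor plasmid and hormone-responsive firefly luciferase reporter, agonism read as compound-dependent rise in luciferase signal.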 It is filed as cell-based.
For assay [3], the target named is T3, AR (Homo sapiens, UniProt P10275).
T3 construct: expressed in transfected cells; host or cells: CV-1 cells, transient transfection
The assay can be described thus: Co-transfection assay, AR antagonist activity. It is filed as cell-based.

In assay [4] the target is T3, AR. The experiment in a line: Co-transfection assay, AR agonist activity. It is filed as cell-based.
Assay [5] concerns the target T4, AR (Rattus norvegicus, UniProt P15207).
T4 construct: from tissue; host or cells: live Sprague-Dawley rats; ventral prostate and seminal vesicles weighed
T4 sequence (P15207 1-902): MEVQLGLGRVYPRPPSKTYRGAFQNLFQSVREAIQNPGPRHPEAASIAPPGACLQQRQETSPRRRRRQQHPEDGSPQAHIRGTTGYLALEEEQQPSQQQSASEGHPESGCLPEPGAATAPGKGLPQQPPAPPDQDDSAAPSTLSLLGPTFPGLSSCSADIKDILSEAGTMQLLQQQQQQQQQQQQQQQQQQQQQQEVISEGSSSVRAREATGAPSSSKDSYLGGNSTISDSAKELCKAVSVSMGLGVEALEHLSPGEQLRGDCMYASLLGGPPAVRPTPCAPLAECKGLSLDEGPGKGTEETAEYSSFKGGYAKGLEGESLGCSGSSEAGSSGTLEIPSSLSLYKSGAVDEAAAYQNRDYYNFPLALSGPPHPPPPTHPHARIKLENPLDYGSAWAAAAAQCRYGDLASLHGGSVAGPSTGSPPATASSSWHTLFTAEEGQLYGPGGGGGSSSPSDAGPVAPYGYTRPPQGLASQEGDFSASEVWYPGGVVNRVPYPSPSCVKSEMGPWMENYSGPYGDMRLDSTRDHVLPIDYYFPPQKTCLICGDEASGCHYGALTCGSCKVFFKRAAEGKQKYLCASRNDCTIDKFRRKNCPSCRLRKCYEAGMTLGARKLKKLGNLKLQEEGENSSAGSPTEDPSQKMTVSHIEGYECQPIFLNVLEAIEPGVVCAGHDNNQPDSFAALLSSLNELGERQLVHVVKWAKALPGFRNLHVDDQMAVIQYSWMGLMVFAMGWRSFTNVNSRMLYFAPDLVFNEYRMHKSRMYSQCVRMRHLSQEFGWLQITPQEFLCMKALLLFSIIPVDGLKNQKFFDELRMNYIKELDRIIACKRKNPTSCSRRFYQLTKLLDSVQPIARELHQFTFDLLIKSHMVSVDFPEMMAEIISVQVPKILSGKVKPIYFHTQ
The experiment in a line: Immature castrated male rat model (antiandrogen activity). The conditions noted are these: for %SV growth / %VP growth: 0 mg TP = 100; for SV (wet wt): seminal vesicles. The class given is in vivo, rats (Sprague-Dawley).
From the text: Since the male sex organs are the tissues most responsive to modulation of androgen activity, this model is used to determine the androgen-dependent growth of the sex accessory organs in immature castrated rats.
At the end of the 3-day treatment, the animals were sacrificed, and the ventral prostates (VP) and seminal vesicles (SV) were collected and weighed. To compare data from different experiments, the sexual organ weights were first standardized as mg per 100 g of body weight, and the increase in organ weight induced by TP was considered as the maximum increase (100%). Super-anova (one factor) was used for statistical analysis.

Setting [6] is: CV-1, read-out: AR Agonist CV-1 Cells Efficacy (%).
Where [7] appears, read: CV-1, read-out: AR Antagonist CV-1 Cells Efficacy (%).
The mark [8] stands for this setting: CV-1 cells; relative to reference agonist DHT.
[9] abbreviates: CV-1 cells; percent maximal inhibition, DHT at its EC50.
[10] abbreviates: 0.01 mg TP once daily for 3 days.
Where [11] appears, read: 0.03 mg TP once daily for 3 days.
Where [12] appears, read: 0.1 mg TP once daily for 3 days.
The mark [13] stands for this setting: 0.3 mg TP once daily for 3 days.

T3 sequence (P10275 whole entry): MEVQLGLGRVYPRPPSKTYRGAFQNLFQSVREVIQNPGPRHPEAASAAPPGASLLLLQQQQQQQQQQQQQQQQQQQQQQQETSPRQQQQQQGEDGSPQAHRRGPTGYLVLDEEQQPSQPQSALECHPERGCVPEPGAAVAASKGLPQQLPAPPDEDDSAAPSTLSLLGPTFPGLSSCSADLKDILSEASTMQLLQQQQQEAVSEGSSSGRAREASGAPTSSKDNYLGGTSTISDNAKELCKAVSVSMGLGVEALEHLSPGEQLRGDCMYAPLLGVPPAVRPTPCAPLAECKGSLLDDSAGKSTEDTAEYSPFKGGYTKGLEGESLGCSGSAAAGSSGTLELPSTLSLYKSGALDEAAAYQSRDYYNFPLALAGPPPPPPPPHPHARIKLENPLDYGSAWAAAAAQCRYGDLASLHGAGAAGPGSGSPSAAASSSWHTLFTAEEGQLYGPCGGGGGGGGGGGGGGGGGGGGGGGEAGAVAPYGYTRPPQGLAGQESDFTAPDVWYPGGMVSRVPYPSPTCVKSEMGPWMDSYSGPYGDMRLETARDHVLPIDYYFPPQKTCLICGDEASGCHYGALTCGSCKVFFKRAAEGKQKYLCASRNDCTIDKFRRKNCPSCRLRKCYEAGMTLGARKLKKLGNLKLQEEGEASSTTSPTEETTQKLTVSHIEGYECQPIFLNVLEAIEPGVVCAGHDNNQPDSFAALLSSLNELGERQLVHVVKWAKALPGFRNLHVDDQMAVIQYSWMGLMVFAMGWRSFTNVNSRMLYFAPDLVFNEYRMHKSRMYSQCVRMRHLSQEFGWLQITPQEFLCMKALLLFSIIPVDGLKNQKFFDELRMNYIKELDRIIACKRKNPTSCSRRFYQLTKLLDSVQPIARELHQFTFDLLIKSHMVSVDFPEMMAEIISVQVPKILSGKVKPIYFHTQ
T2 sequence (P03372 whole entry): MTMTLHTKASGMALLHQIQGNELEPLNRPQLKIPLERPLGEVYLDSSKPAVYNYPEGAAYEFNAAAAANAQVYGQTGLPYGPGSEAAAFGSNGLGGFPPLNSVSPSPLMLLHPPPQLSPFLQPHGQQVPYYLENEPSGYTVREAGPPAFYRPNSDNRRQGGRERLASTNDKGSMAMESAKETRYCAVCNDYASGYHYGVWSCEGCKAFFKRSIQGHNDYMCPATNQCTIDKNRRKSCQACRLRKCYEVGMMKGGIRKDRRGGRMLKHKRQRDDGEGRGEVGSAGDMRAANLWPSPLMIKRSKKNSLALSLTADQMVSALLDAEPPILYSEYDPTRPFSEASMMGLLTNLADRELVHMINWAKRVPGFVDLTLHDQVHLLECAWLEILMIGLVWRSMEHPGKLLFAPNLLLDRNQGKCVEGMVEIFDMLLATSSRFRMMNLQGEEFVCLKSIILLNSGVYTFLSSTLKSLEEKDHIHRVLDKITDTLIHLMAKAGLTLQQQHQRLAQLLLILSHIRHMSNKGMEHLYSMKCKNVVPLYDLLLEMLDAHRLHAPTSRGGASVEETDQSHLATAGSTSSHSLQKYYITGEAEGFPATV

As a reminder, the IC50 is the midpoint of a concentration-inhibition curve. In the case of `CC1=CC(C)(C)Nc2ccc3c(c21)C(c1cccc(F)c1)Oc1ccccc1-3` (racemic) [Compound 191, (R/S)-5-(3-Fluorophenyl)-1,2-dihydro-2,2,4-trimethyl-5H-chromeno[3,4-f]quinoline], the Emax turned out to be 74% on human PR-B [1] (CV-1, read-out: PR Antagonist CV-1 Cells Efficacy (%)) and 26% at human PR-B [2] (CV-1, read-out: PR Agonist CV-1 Cells Efficacy (%)). For the same compound, the 50% inhibitory concentration (IC50) at ER worked out at 330 nM; on AR [3], 520 nM. At ER, the “ER Antagonist CV-1 Cells Efficacy (%)” value is recorded as 93%.
For the compound `CC1=CC(C)(C)Nc2cc3oc(=O)cc(C(F)(F)C(F)(F)F)c3cc21` [Compound 256, 1,2-Dihydro-2,2,4-trimethyl-6-(1,1,2,2,2-pentafluoroethyl)-8-pyranono[5,6-g]quinoline], the Emax at AR [4] (setting [6]) was less than 20%; on AR [3] (setting [7]), 91%.
Take `CC1=CC(C)(C)Nc2cc3oc(=O)cc(C(F)(F)F)c3cc21` [Compound 238, 1,2-Dihydro-2,2,4-trimethyl-6-trifluoromethyl-8-pyranono[5,6-g]quinoline]: the Emax at AR [4] (setting [6]) was 96%; at AR [3] (setting [7]), less than 20%.
The corresponding values for `CC1=CC(C)(C)N(C)c2cc3oc(=O)cc(C(F)(F)F)c3cc21` [Compound 265, 1,2-Dihydro-1,2,2,4-tetramethyl-6-trifluoromethyl-8-pyranono[5,6-g]quinoline] are less than 20% and 78%.
Take `CC1C(=O)C(C)(C)Nc2cc3[nH]c(=O)cc(C(F)(F)F)c3cc21` (racemic) [Compound 418, (R/S)-1,2,3,4-tetrahydro-6-trifluoromethyl-2,2,4-trimethyl-8-pyridono[5,6-f]-3-quinolinone]: the values for the Emax on AR [4] (setting [6]) and at AR [3] (setting [7]) were less than 20% and 63%, respectively.
In the case of `COc1cccc(C2Oc3ccccc3-c3ccc4c(c32)C(C)=CC(C)(C)N4)c1` (racemic) [Compound 194, (R/S)-1,2-Dihydro-5-(3-methoxyphenyl)-2,2,4-trimethyl-5H-chromeno[3,4-f]quinoline], on ER, 390 nM corresponded to half-maximal inhibition (IC50) and the “ER Antagonist CV-1 Cells Efficacy (%)” value was determined as 94%.
Take `CCC1CCNc2cc3oc(=O)cc(C(F)(F)F)c3cc21` (racemic) [Compound 414, (R/S)-4-Ethyl-1,2,3,4-tetrahydro-6-trifluoromethyl-8-pyranono[5,6-g]quinoline]: the Emax on AR [4] (setting [6]) was 118%; at AR [3] (setting [7]) it was less than 20%.
In the case of `CC1(C)CNc2cc3[nH]c(=O)cc(C(F)(F)F)c3cc2C1` [Compound 437, 1,2,3,4-Tetrahydro-3,3-dimethyl-6-trifluoromethyl-8-pyridono[5,6-g]quinoline], the Emax is less than 20% at AR [4] (CV-1; read-out: AR Agonist CV-1 Cells Efficacy (%)) and 72% on AR [3] (CV-1; read-out: AR Antagonist CV-1 Cells Efficacy (%)).
In the case of `CC1=CC(C)(C)Nc2cc3c(cc21)c(C(F)(F)F)cc(=O)n3C` [Compound 261, 1,2-Dihydro-2,2,4,9-tetramethyl-6-trifluoromethyl-8-pyridono[5,6-g]quinoline], at AR [5] (administered simultaneously with 0.1 mg of TP), the “effect on testosterone-mediated increases in the weights of VP and SV” value is “exhibited AR antagonist activity by suppressing the testosterone-mediated increases in the weights of the VP and SV”.
With `CC1CC(C)(C)Nc2cc3oc(=O)cc(-c4ccoc4)c3cc21` (racemic) [Compound 405, (R/S)-5-(3-Furyl)-1,2,3,4-tetrahydro-2,2,4-trimethyl-8-pyranono[5,6-g]quinoline], the values for the Emax at AR [4] (setting [6]) and at AR [3] (setting [7]) were less than 20% and 89%, respectively.
With `CC1=CC(C)(C)Nc2cc3[nH]c(=O)cc(C(F)(F)F)c3cc21` [Compound 247, 1,2-Dihydro-2,2,4-trimethyl-6-trifluoromethyl-8-pyridono[5,6-g]quinoline], the “AR Agonist CV-1 Cells Efficacy (%)” value on AR [4] (setting [8]) was 23%. Also, the “AR Antagonist CV-1 Cells Efficacy (%)” value at AR [3] (setting [9]) was found to be 69%.
For the compound `O=c1cc(C(F)(F)F)c2cc3c(cc2[nH]1)NCC3` [Compound 419, 5-Trifluoromethyl-7-pyridono[5,6-e]indoline], the “AR Agonist CV-1 Cells Efficacy (%)” value on AR [4] (setting [8]) is recorded as 29%. On AR [3] (setting [9]), the “AR Antagonist CV-1 Cells Efficacy (%)” value was found to be 74%.
As to `CCC(=O)O[C@H]1CC[C@H]2[C@@H]3CCC4=CC(=O)CC[C@]4(C)[C@H]3CC[C@]12C` [TP, Testosterone Propionate], the “%SV growth” value on AR [5] (setting [10]) is given as 165.1%; at AR [5] (setting [11]), 369.5%; on AR [5] (setting [12]), 563.8%; at AR [5] (setting [13]), 616.1%; at AR [5] (1 mg TP once daily for 3 days), 684.6%. Also, the “%VP growth” value was 146.5% on AR [5] (setting [10]); 224.1% at AR [5] (setting [11]); 337.0% on AR [5] (setting [12]); 415.9% at AR [5] (setting [13]); 427.4% at AR [5] (1 mg TP once daily for 3 days). Moreover, the “VP (wet wt)” value on AR [5] (0.01 mg TP once daily for 3 days, castrated immature rats, ventral prostate (organ weights standardized as mg per 100 g body weight)) is recorded as 15.4±0.6; on AR [5] (0.03 mg TP once daily for 3 days, ventral prostate), 23.5±1.3; on AR [5] (0.1 mg TP once daily for 3 days (Table 8), ventral prostate), 35.3±2.1; on AR [5] (0.3 mg TP once daily for 3 days, ventral prostate), 43.6±1.1; at AR [5] (1 mg TP once daily for 3 days, ventral prostate), 44.8±3.7; on AR [5] (TP (0.1) alone (Table 9), 3 days, ventral prostate) it was 25.5±1.2. Besides, the “SV (wet wt)” value on AR [5] (setting [10]) is on record as 12.3±0.8; at AR [5] (setting [11]) it was 27.5±0.8; on AR [5] (0.1 mg TP once daily for 3 days (Table 8)), 42.0±2.0; on AR [5] (setting [13]), 45.9±1.9; on AR [5] (1 mg TP once daily for 3 days), 51.0±5.4; at AR [5] (TP (0.1) alone (Table 9), 3 days), 33.6±4.0. In addition, the “SV wt (% of TP (0.1) control)” value on AR [5] (TP (0.1) alone (Table 9)) is listed as 100%. The “VP wt (% of TP (0.1) control)” value at AR [5] (TP (0.1) alone (Table 9)) is listed as 100%. Besides, the “EC50 (increase in organ wet weights)” value at AR [5] (immature castrated rats, dosing for 3 days, VP and SV) is recorded as roughly 0.03 mg.
Usually EC50 stands for the concentration that produces a half-maximal response. A higher EC50 goes with lower potency in that assay. In turn, `CC1CC(C)(C)Nc2cc3[nH]c(=O)cc(C(F)(F)F)c3cc21` (racemic) [Compound 260, 1,2,3,4-Tetrahydro-2,2,4-trimethyl-6-trifluoromethyl-8-pyridono[5,6-g]quinoline] showed an IC50 against human PR-B [1] of 230 nM. This compound came in with a concentration for a half-maximal effect (EC50) on human PR-B [2] greater than 10000 nM. Moreover, at AR [3] (setting [9]), the “AR Antagonist CV-1 Cells Efficacy (%)” value turned out to be 53%.
